Values quoted from earlier work in patent US6855835B2, “Allomorph of isomer Z hydrochloride of alkylaminofurane derivative” (Pharmexcel SRL, priority 2000, dated 2005).

How the values were obtained:
[1] = form 2 compared with form 1; quoted from prior patent (6)
[2] = tested on: histamine H2-receptors; conditions: Z isomer compared with E isomer; suggested by authors (10, 11)
histamine H2-receptors, sequence (P25021 whole entry): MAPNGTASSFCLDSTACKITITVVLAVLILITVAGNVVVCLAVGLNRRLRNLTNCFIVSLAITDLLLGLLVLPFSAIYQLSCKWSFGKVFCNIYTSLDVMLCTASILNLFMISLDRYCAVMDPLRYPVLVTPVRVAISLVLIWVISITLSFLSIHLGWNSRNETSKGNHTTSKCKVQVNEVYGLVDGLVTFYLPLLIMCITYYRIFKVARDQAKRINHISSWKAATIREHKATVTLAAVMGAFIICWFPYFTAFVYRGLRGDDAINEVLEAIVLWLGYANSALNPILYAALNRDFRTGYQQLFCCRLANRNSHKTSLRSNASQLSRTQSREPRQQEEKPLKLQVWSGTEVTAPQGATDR

| hygroscopicity [1] | affinity for histamine H2-receptors [2] | SMILES |
| --- | --- | --- |
| less hygroscopic than form 1 |  | CNC(=C[N+](=O)[O-])NCCSCc1ccc(CN(C)C)o1.Cl (racemic) [form 2, N-[2-[[[5-(dimethylamino)methyl-2-furanyl]methyl]thio]ethyl]-N′-methyl-2-nitro-1,1-ethenediamine hydrochloride] |
|  | greater configurational affinity | CN/C(=C/[N+](=O)[O-])NCCSCc1ccc(CN(C)C)o1 (single isomer, unassigned) [Z, (N-[2-[[[5-(dimethylamino)methyl-2-furanyl]methyl]thio]ethyl]-N′-methyl-2-nitro-1,1-ethenediamine)] |
